Structures can show the parent of a compound that is named as a salt. Blank lines part the entries; values can stand above or below the compound they belong to.
What was measured:
[1] = Cyclopropene release measurement (headspace gas chromatography); type: physicochemical; conditions: for effect on % release of 1-MCP (in words): compared to the 13% with no agent
Experimental: Cyclopropene Headspace Measurement Method:
A composition containing water and cyclopropene was sealed in a bottle equipped with a septum in a manner that leaves a portion of the volume of the bottle filled with gas; a portion of the headspace was analyzed for cyclopropene at 1 hour after injection. The analysis method was gas chromatography using the following parameters:
Cyclopropene Release Measurement
The release of cyclopropene from a mixture of water and cyclopropene was measured as follows.
From the measure concentration of cyclopropene in the headspace and the amount of cyclopropene added to the bottle, the fraction of the total amount of cyclopropene in the bottle that resides in the headspace can be calculated and reported as a percentage based on the amount of cyclopropene added to the bottle.

[2] = tested on: Tomatoes (Rutgers 39 Variety); experiment: Tomato epinasty test; type: in vivo; conditions: for % Control of Epinasty: foliar spray, 1-MCP 140 ppb, ethylene 14 ppm 12-14 hours
Experimental: Tomato epinasty tests were performed as follows:
Tomatoes (Rutgers 39 Variety Harris Seeds No 885 Lot 37729-A3) were grown in 2½″ square pots filled with a commercial potting mix. Two seeds were place in each pot. Plants that had expanded first true leaves and were between 3 and 5 inches high were used for the tomato epinasty test.
To conduct the assay, the plants were sprayed to run off with the test 1-MCP foliar spray and allowed to dry for 4 hours in sunlight These operations were performed in a ventilated area away from the plants growing in the greenhouse so there would not be any unintended treatment to growing plants destined for later experiments.
The 1-MCP treated plants and both treated and untreated controls were placed into an SLX controlled-atmosphere shipping box and sealed. To the box, ethylene was injected through a septum, which gave a concentration of 14 ppm. The plants were held sealed for 12-14 hours in the dark with ethylene in the atmosphere. At the end of ethylene treatment, the box was opened and scored for epinasty. Scoring for epinasty was accomplished by using the following scoring system for each pot. • 1. 0% no epinasty (100% control) • 2. 20% A couple leaves show some drooping (80% control) • 3. 50% Plants show 50% of full response. Not all leaves need to show effect. (50% control) • 4. 80% Almost all leaves drooping and some show underside of leaf exposed on top. (20% control) • 5. 100% Leaves completely drooping and the underside of the leaf exposed from above. (0% control)
The score of each pot is recorded. The average of 6 or 8 pots is averaged to get a score. The percentage improvement is calculated by interpolating the percentage improvement from the control water (i.e., no additives) 1-MCP treatment.
Tomato epinasty tests were conducted using a formulation that included water; a 1-MCP α-CD complex that contained 0.14% 1-MCP by weight, based on the weight of the 1-MCP α-CD complex; and sodium salt of EDTA. The amount of 1-MCP α-CD complex was chosen so that the formulation had 140 ppb of 1-MCP. Also included in the formulation were an anionic surfactant (0.1% by weight based on the weight of the formulation), isopropanol (1% by weight based on the weight of the formulation), and a spray oil (1% by weight based on the weight of the formulation).

[3] = deionized water #1, 5 ppm copper ion, metal-complexing agent 1 mM
[4] = deionized water #1, 5 ppm copper ion, metal-complexing agent 5 mM
[5] = deionized water #1, 5 ppm copper ion, metal-complexing agent 10 mM

Structure (SMILES): CC1=CC1 [1-MCP, 1-methylcyclopropene, reference compound]
% Release of 1-MCP ([1]; 1-MCP α-CD complex in deionized #1 water, no metal-complexing agent): 100% | % Release of 1-MCP ([1]; 1-MCP α-CD complex in deionized #2 water, no metal-complexing agent): 60% | % Release of 1-MCP ([1]; 1-MCP α-CD complex in filtered (MilliQ) water, no metal-complexing agent): 100% | % Release of 1-MCP ([1]; 1-MCP α-CD complex in tap #1 water, no metal-complexing agent, headspace at 1 hour): 60% | % Release of 1-MCP ([1]; 1-MCP α-CD complex in tap #2 water, no metal-complexing agent, headspace at 1 hour): 13% | activity of 1-MCP (in words) ([1]; copper ions without sodium salt of EDTA): reduction in activity | activity of 1-MCP (in words) ([1]; copper ions, sodium salt of EDTA added 2 hours after the 1-MCP α-CD complex): fails to maintain the activity | activity of 1-MCP (in words) ([1]; copper ions, sodium salt of EDTA added to the water before the 1-MCP α-CD complex): maintains the full activity | % Release of 1-MCP ([1]; deionized water #1, copper ions 0 ppm, sodium salt of EDTA 0 mM): 100% | % Release of 1-MCP ([1]; deionized water #1, copper ions 1 ppm, sodium salt of EDTA 0 mM): 54% | % Release of 1-MCP ([1]; deionized water #1, copper ions 5 ppm, sodium salt of EDTA 0 mM): 36% | % Release of 1-MCP ([1]; deionized water #1, copper ions 5 ppm, sodium salt of EDTA 11 mM added 2 hours after 1-MCP α-CD complex, headspace 1 hour later): 37% | % Release of 1-MCP ([1]; deionized water #1, copper ions 5 ppm, sodium salt of EDTA 11 mM added before the 1-MCP α-CD complex): 100% | % Release of 1-MCP ([1]; deionized water #1, copper ions 10 ppm (cupric sulfate), sodium salt of EDTA 0 mM): 10% | control of epinasty (in words) ([2]; deionized water with 1-MCP): does control epinasty | % Control of Epinasty ([2]; de-ionized water, EDTA 0 mM): 100% | % Control of Epinasty ([2]; well water, EDTA 0 mM): 0% | % Control of Epinasty ([2]; well water, EDTA 0.003 mM): 80% | control of epinasty (in words) ([2]; well water with 1-MCP): does not control epinasty | control of epinasty (in words) ([2]; well water with 1-MCP and sodium salt of EDTA): does control epinasty

% Release of 1-MCP ([1]; tap #2 water, citric acid 1 milliMolar added first): 63% | % Release of 1-MCP ([1]; tap #2 water, citric acid 10 milliMolar added first): 100% | % Release of 1-MCP ([1]; tap #2 water, citric acid 100 milliMolar added first): 92% | effect on % release of 1-MCP (in words) ([1]; tap #2 water): improves the % release dramatically
Structure (SMILES): O=C(O)CC(O)(CC(=O)O)C(=O)O [Citric Acid, citric acid]

effect on % release of 1-MCP (in words) ([1]; tap #2 water): improves the % release dramatically | % Release of 1-MCP ([1]; tap #2 water, sodium salt of EDTA 0.00001 milliMolar): 87% | % Release of 1-MCP ([1]; tap #2 water, sodium salt of EDTA 0.0001 milliMolar): 100% | % Release of 1-MCP ([1]; tap #2 water, sodium salt of EDTA 0.001 milliMolar): 100% | % Release of 1-MCP ([1]; tap #2 water, sodium salt of EDTA 0.01 milliMolar): 100% | % Release of 1-MCP ([1]; tap #2 water, sodium salt of EDTA 0.1 milliMolar): 100% | % Release of 1-MCP ([1]; tap #2 water, sodium salt of EDTA 1 milliMolar): 100% | % Release of 1-MCP ([1]; tap #2 water, sodium salt of EDTA 10 milliMolar): 100%
Structure (SMILES): O=C(O)CN(CCN(CC(=O)O)CC(=O)O)CC(=O)O [Sodium Salt of EDTA, ethylenediaminetetraacetic acid]

% Release of 1-MCP [1, 3]: 99% | % Release of 1-MCP [1, 4]: 85% | % Release of 1-MCP [1, 5]: 92%
Structure (SMILES): O=C(O)C(O)C(O)C(=O)O (centres unmarked) [Tartaric acid, tartaric acid]

% Release of 1-MCP [1, 3]: 97% | % Release of 1-MCP [1, 4]: 100% | % Release of 1-MCP [1, 5]: 95%
Structure (SMILES): O=C(O)CN(CC(=O)O)CC(=O)O [nitrilotriacetic acid]

Structure (SMILES): O=C([O-])[O-].[Na+].[Na+] [sodium carbonate]
% Release of 1-MCP [1, 3]: 61% | % Release of 1-MCP [1, 4]: 68% | % Release of 1-MCP [1, 5]: 71%

Structure (SMILES): O=P([O-])([O-])OP(=O)([O-])[O-].[Na+].[Na+].[Na+].[Na+] [tetrasodium pyrophosphate]
% Release of 1-MCP [1, 3]: 42% | % Release of 1-MCP [1, 4]: 39% | % Release of 1-MCP [1, 5]: 54%

Source: patent publication US8541344B2, “Compositions with cyclopropenes and metal-complexing agents” (Rohm and Haas Company, priority 2004, dated 2013)
